# Measured values: US20240050513A1, “COMPOSITION FOR PREVENTING, AMELIORATING, OR TREATING DISEASE CAUSED BY PROTEIN NITRATION […] WITH TERMINAL TYROSINE AS EFFECTIVE COMPONENT” (INDUSTRY-ACADEMIC COOPERATION FOUNDATION GYEONGSANG …, priority 2021, published 2024)
# Assays:
# [1] = test system: glutamine synthetase (GS); assay: GS activity and GS tyrosine nitration in PFC, chronic immobilization stress model; type: in vivo, C57BL/6 mice; details: stress group
# Method: Using the prefrontal cortex (PFC) lysate samples from mice obtained after the completion of chronic immobilization stress, GS activity and GS expression level were measured by following the method described above.
# Furthermore, the level of tyrosine nitration within GS was measured by using immunoprecipitation (IP)-WB. The immunoprecipitation analysis of tyrosine-nitrated GS was performed using an anti-nitrotyrosine antibody (ab61392, Abcam) and Protein A/G PLUS-Agarose (Santa Cruz) according to the manufacturer's protocol.
# [2] = test system: superoxide dismutase (SOD); assay: Hippocampal SOD activity in ischemic stroke model; type: in vivo, Mongolian gerbils; details: hippocampus, 200 mg/kg i.p. once, twenty-four hours after reperfusion
# Method: (§1) Three-month-old male Mongolian gerbils were induced with general anesthesia using 3% isoflurane and the anesthesia was maintained with 2.5% isoflurane gas. After sterilizing the neck area, a midline incision was made to expose both common carotid arteries, and microvessel clip was used to block the blood flow for 5 minutes, inducing cerebral ischemia to simulate a stroke. During the application of the microvessel clip, the body temperature was maintained at 37.0±0.5° C., and animals undergoing sham operation were used as the control group.
# After inducing ischemia, the animal was, under reperfusion, intraperitoneally administered once with YQ peptide at a dose of 200 mg/kg. Two hours or twenty-four hours after the reperfusion, the animal was anesthetized with avertin. Then, the skull was quickly opened, and the brain was rapidly removed. The hippocampal tissue was collected and rapidly frozen in liquid nitrogen, then stored in a deep freezer. Subsequently, the activities of superoxide dismutase (SOD) and catalase (CAT) were measured by using SOD colorimetric activity kit and CAT colorimetric activity kit, respectively.
# [3] = test system: glutamatergic neurons of 3xTG-vGluT2-Cre::tdTomato mice; assay: sEPSC of glutamatergic neurons in mPFC of fluorescent labeled Alzheimer's disease model; type: in vivo, mouse; details: 1xYQ diet from 2 months, measured at 6 to 8 months
# Method: At two months of age, 3xTG-vGluT2-Cre::tdTomato mice were fed with diet supplemented with tyrosine-containing peptide (1xYQ). At 6 to 8 months of age, the spontaneous excitatory postsynaptic current (sEPSC) was measured to evaluate the activity of glutamatergic neurons. For recording membrane currents, a 200 μm-thick brain cross-section was placed in a recording chamber filled with artificial cerebrospinal fluid at a rate of 1.5 to 2 ml/min, and, under a holding potential of −70 mV, whole-cell voltage clamp recordings were obtained from visually identified glutamatergic neurons in the medial prefrontal cortex (mPFC). Glutamatergic currents were isolated by the addition of picrotoxin (100 μM). All recordings were performed at 30±2° C., and, as the pipette solution, a solution containing 30 mM KCl, 5 mM CaCl2, 10 mM EGTA, 10 mM HEPES, 2 mM MgATP, 0.5 mM Na2GTP, and 5 mM phosphocreatine was used.
# [4] = test system: chronic immobilization stress C57BL/6 mice; assay: Cognitive function (ORT/OLT) in chronic immobilization stress model; type: in vivo; details: stress group, peptide-supplemented diet vs normal diet
# Method: (§2) To analyze the long-term memory capacity of animals following the peptide diet of the present invention, both the object recognition test (ORT) and object location recognition test (OLT) were conducted (FIG. 1). The tests consisted of three phases: habituation, familiarization, and test. During the habituation phase, the animals were acclimated to the testing apparatus for 10 minutes per day over two days. On the third day at the familiarization phase, the animals were allowed to explore two identical objects for 10 minutes. Subsequently, on the fourth day at the test phase, one of the objects was replaced with a novel object, and the animals were allowed to explore for 10 minutes, with result recorded during the initial 5 minutes was used as test data. The object recognition test (ORT) index was calculated using the following formula.
# (§3) Discrimination index=(N−F)/(N+F) • N: Time spent for exploring new object • F: Time spent for exploring familiar object
# After 24 hours of performing the ORT, the location of the familiar object was changed, and the animals were allowed to explore for 5 minutes. During the total exploration time, the ratio of time spent exploring the object with a changed location was calculated to determine the object location recognition test (OLT) index.
# A total of 28 seven-week-old male C57BL/6 mice were divided into two groups: a control group and a stress group. […]
# 3xTG-AD mice = assay: Cognitive function (ORT) and hippocampal ROS/RNS in Alzheimer's disease model; type: in vivo, mouse; details: 1xYQ diet
# Method: as §2, §3
# The cognitive function of a 2-month-old mouse 3xTG-AD, which is a mouse model of modified Alzheimer's disease gene, and a 2-month-old normal C57BL/6 mouse was examined. After the examination, both were divided into two groups, and they were fed with either a normal diet (ND) or a diet supplemented with tyrosine-containing peptide (1xYQ). […]
# [5] = test system: ischemic stroke Mongolian gerbils; assay: Neuronal cell death in ischemic stroke model (cell count, immunohistochemical staining); type: in vivo
# Method: as §1
# After inducing ischemia, the animal was, under reperfusion, intraperitoneally administered with YQ peptide at a dose of 200 mg/kg, three times every 24 hours. On the fourth day, the animal was sacrificed, and brain tissues were collected to measure the number of dead neuronal cell.
# Immunohistochemical staining was carried out to examine changes in neuronal cells and microglial cells and also a change in related factors in the hippocampus of an ischemic brain injury animal model. Specifically, after inducing ischemia, YQ peptide was administered intraperitoneally three times every 24 hours at a dose of 200 mg/kg under reperfusion. A control group was administered with a vehicle (i.e., 0.9% saline) instead of the peptide. On the 4th day, the animal was sacrificed, and brain tissue was collected and fixed with 4% paraformaldehyde at 4° C. Subsequently, the tissue was added to sucrose solutions of increasing concentrations (i.e., 10%, 20%, and 30%), frozen using liquid nitrogen, and sectioned into continuous slice specimens with a thickness of 30 μm. The specimens were stored in a cryoprotective solution at −20° C. The brain tissue specimen was rinsed three times for 10 minutes each with 0.01 M PBS and treated with 0.3% H2O2 for 30 minutes to eliminate endogenous peroxidase present in the tissue. To prevent any nonspecific immune reaction, the specimen was incubated for 30 minutes with 5% normal serum corresponding to each antibody. […]
substance,measurement,setting,value
tyrosine-glutamine [YQ],tyrosine nitration level of GS,"[1]; IP-WB, peptide diet vs normal diet",statistically significant decrease
same,GS activity,[1]; peptide diet (330 mg/kg) vs normal diet,statistically significant increase
same,SOD activity,[2],activity increases
same,glutamatergic neuronal activity (sEPSC),[3],increased
same,cognitive function,[4],enhanced cognitive function
same,cognitive function (ORT),"3xTG-AD mice; dementia animal model 3xTG-AD, 2 to 8 months of age",slight improvement
same,ROS/RNS level in the hippocampal tissues,3xTG-AD mice; dementia animal model,decrease
same,number of neuronal cells,"[5]; 200 mg/kg i.p. three times every 24 hours, fourth day",increase
same,cells found to survive compared to the sham operation group,"[5]; hippocampal CA1 region, 200 mg/kg i.p. three times every 24 hours, 4th day",approximately 60.7%
same,morphological changes in glial cells,"[5]; immunohistochemical staining, 200 mg/kg i.p. three times",minimal morphological changes
